Source: article PMC5015074, “Enhancing Endosomal Escape for Intracellular Delivery of Macromolecular Biologic Therapeutics” (Scientific Reports, 2016)

Key:
H1299 G1-10 cells = assay: macropinocytosis assay (70-kDa neutral dextran-Texas Red uptake, FACS); format: cell-based, human; details: 10 μM peptide, 70 min, 70-kDa neutral dextran-Texas Red 100 μg/mL, 37°, triplicate
Method: 3,000 H1299 G1-10 cells were plated in a 48-well plate and treated with 10 μM TAT-P6-GG, TAT-P6-GWWG or TAT-P6-GFWFG peptides for 70 min in the presence of 70-kDa neutral dextran-Texas Red (100 μg/mL; Invitrogen) at 37° in triplicate. Cells were washed, trypsinized and analyzed by FACS (>2,000 cells per sample).

[1] = system: GFPβ1-10 expressing H1299 cells; assay: live cell split-GFP fluorescence complementation transduction assay (FACS); format: cell-based, human; details: GFPβ1-10 H1299 cells
Method: (§1) All transduction experiments were performed in 48-well plates. An optimized protocol was established. First, 15,000 or 20,000 cells were plated in each well. Next day, the indicated peptides were pipetted into microcentrifuge tubes. Transduction buffer (60% OptiMEM and 40% PBS) was added to peptide (100 μl total volume), directly mixed by pipetting up and down five times and then immediately transferred to cells. […] All cells were trypsinized and collected in 250 μl OptiMEM without phenol red and analyzed by FACS (GFP, FSC/SSC). 4,000 viable cells were analyzed per sample. Data is presented as fold change in fluorescence compared to non-treated cells.

[2] = system: GFPβ1-10 expressing HaCaT keratinocytes; assay: split-GFP complementation transduction assay (FACS); format: cell-based, human; details: dose-dependent analysis by FACS, EED peptide compared to parental GFPβ11-(S-S)-TAT, triplicate samples
Method: as §1

[3] = system: GFPβ1-10 expressing MCF7 breast carcinoma cells; assay: as above; format: cell-based, human; details: dose-dependent analysis by FACS, EED peptide compared to parental GFPβ11-(S-S)-TAT, triplicate samples
Method: as §1

[4] = system: GFPβ1-10 expressing MDA-MB-231 breast carcinoma cells; assay: as above; format: cell-based, human
Method: as §1

[5] = system: GFPβ1-10 expressing H1299 cells
Method: (§2) Cell morphology was determined by FACS analysis of FSC and SSC. Gates were set manually for viable cells using untreated control cells as reference and the fraction of viable cells compared to non-viable cells was determined for each sample. Data are presented as the relative difference compared to non-treated control cells. Viable cells per sample were determined by measuring number of viable cells that were analyzed per second by FACS. Gates for viable cells were set manually using untreated control cells as reference. Data are presented as the relative difference compared to untreated control cells.

[6] = system: GFPβ1-10 expressing HaCaT keratinocytes
Method: as §2

[7] = system: GFPβ1-10 expressing MDA-MB-231 breast carcinoma cells
Method: as §2

[8] = system: GFPβ1-10 expressing MCF7 breast carcinoma cells
Method: as §2

TAT-P6-GFWFG [TAT peptide with PEG6-GFWFG endosomal escape domain]
stimulation of macropinocytosis, in words (H1299 G1-10 cells): stimulate macropinocytosis to a similar extent

GFPβ11-(S-S)-TAT-P6-GFWFG [compound 6]
increase in GFP fluorescence compared to the parental GFPβ11-(S-S)-TAT peptide ([1]; stated in text for Fig. 4b-e): five-fold | GFP complementation fluorescence / endosomal escape, in words [2]: significantly enhanced endosomal escape | GFP complementation fluorescence / endosomal escape, in words [3]: significantly enhanced endosomal escape | GFP complementation fluorescence / endosomal escape, in words ([4]; MDA-MB-231, dose-dependent analysis by FACS, EED peptide compared to parental GFPβ11-(S-S)-TAT, triplicate samples): significantly enhanced endosomal escape | Cell Viability 15 uM [5]: 0.97 | Cell Viability 30 uM [5]: 0.97 | Cell Viability 45 uM [5]: 0.90 | cytotoxicity, in words [6]: non-cytotoxic | cytotoxicity, in words [7]: non-cytotoxic | cytotoxicity, in words [8]: non-cytotoxic

GFPβ11-(S-S)-TAT-P6-GWWWG [compound 9]
Cell Viability 15 uM [5]: 0.96 | Cell Viability 30 uM [5]: 0.42 | Cell Viability 45 uM [5]: 0.18

CCN(c1nc(N)c(C(=O)NC(=N)N)nc1Cl)C(C)C [EIPA, reference compound]
effect of macropinocytosis inhibitor on GFP fluorescence from GFPβ11-TAT, in words ([4]; MDA-MB-231c#G3 pre-treated with 80 μM EIPA, transduced with 60 μM GFPβ11-TAT with 80 μM EIPA for 40 or 80 min, FACS, triplicate): reduced GFP fluorescence to near background levels

CCN(CC)CCCC(C)Nc1ccnc2cc(Cl)ccc12 (centres unmarked) [Chloroquine, reference compound]
increase in GFP fluorescence of GFPβ11-(S-S)-TAT treated cells on addition of Chloroquine ([1]; low concentration of GFPβ11-(S-S)-TAT peptide plus 100 μM Chloroquine): ~ 4 fold

GFPβ11-(S-S)-TAT-P6-GWGGWG [compound 8]
enhancement of GFP fluorescence compared to the -GWWG motif, in words [1]: decreased the enhancement significantly | Cell Viability 15 uM [5]: 0.96 | Cell Viability 30 uM [5]: 0.98 | Cell Viability 45 uM [5]: 0.97
